# ChEMBL document CHEMBL1201862, “PubChem BioAssay data set” (2004)
#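 Briefly, cells in 96-well plates were exposed to five compound concentrations for 48 h, and endpoints were estimated by linear interpolation. GI50 = concentration required for 50% inhibition of growth.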 The source made the active and inactive calls. Cut-off read from the data, not from the text of the source: active = GI50 up to about 1.1 µM and inactive = higher.
# Tests used:
# Assay in all cases: NCI tumour cell line growth inhibition, 48 h
# HOP-92 = system: HOP-92
# NCI-H460 = system: NCI-H460
# UO-31 = system: UO-31
# T47D = system: T47D
# U-251 = system: U-251
# TK-10 = system: TK-10
# HCT-15 = system: HCT-15
# SK-OV-3 = system: SK-OV-3
# OVCAR-5 = system: OVCAR-5
# HT-29 = system: HT-29
# K562 = system: K562
# SN12C = system: SN12C
# SNB-75 = system: SNB-75
# 786-0 = system: 786-0
# ACHN = system: ACHN
# COLO 205 = system: COLO 205
# MDA-N = system: MDA-N
# DU-145 = system: DU-145
# Malme-3M = system: Malme-3M
# NCI-H226 = system: NCI-H226
SMILES,GI50 (HOP-92),GI50 (NCI-H460),GI50 (UO-31),GI50 (T47D),GI50 (U-251),GI50 (TK-10),GI50 (HCT-15) [µM],GI50 (SK-OV-3),GI50 (OVCAR-5),GI50 (HT-29),GI50 (K562),GI50 (SN12C),GI50 (SNB-75),GI50 (786-0),GI50 (ACHN),GI50 (COLO 205),GI50 (MDA-N),GI50 (DU-145),GI50 (Malme-3M),GI50 (NCI-H226)
Oc1c(Br)cc(/C=C/c2cccc(/C=C/c3cc(Br)c(O)c(Br)c3)n2)cc1Br,12.1 µM (inactive),2.96 µM (inactive),15.1 µM (inactive),5.89 µM (inactive),9.06 µM (inactive),14.2 µM (inactive),6.22,20.6 µM (inactive),17.6 µM (inactive),12.6 µM (inactive),3.3 µM (inactive),9.68 µM (inactive),4.34 µM (inactive),14.8 µM (inactive),6.38 µM (inactive),14.6 µM (inactive),18.8 µM (inactive),< 0.01 µM (active),,
O=C(C=P(c1ccccc1)(c1ccccc1)c1ccccc1)C12CC3CC(CC(C3)C1)C2,20.5 µM (inactive),16.4 µM (inactive),14.6 µM (inactive),16.1 µM (inactive),17.7 µM (inactive),11.8 µM (inactive),13.4,,17.1 µM (inactive),11.2 µM (inactive),< 0.01 µM (active),15.9 µM (inactive),16.9 µM (inactive),17.3 µM (inactive),16.2 µM (inactive),11.9 µM (inactive),14.3 µM (inactive),19.1 µM (inactive),19.2 µM (inactive),
CCSc1[nH]c(Nc2nc(-c3ccccc3)n(-c3ccccc3)n2)c(C(N)=O)c1C(N)=O,> 10 µM (inactive),,,> 10 µM (inactive),,> 10 µM (inactive),> 10,> 10 µM (inactive),,> 10 µM (inactive),> 10 µM (inactive),> 10 µM (inactive),9.44 µM (inactive),> 10 µM (inactive),,> 10 µM (inactive),> 10 µM (inactive),> 10 µM (inactive),> 10 µM (inactive),
[O-][n+]1onc2c1/C(=N/O)CCC2,,> 100 µM (inactive),> 100 µM (inactive),> 100 µM (inactive),,> 100 µM (inactive),> 100,> 100 µM (inactive),> 100 µM (inactive),> 100 µM (inactive),> 100 µM (inactive),> 100 µM (inactive),> 100 µM (inactive),> 100 µM (inactive),> 100 µM (inactive),> 100 µM (inactive),> 100 µM (inactive),> 100 µM (inactive),> 100 µM (inactive),> 100 µM (inactive)
COc1nc(C#CC2CCCCC2)nc(OC)n1,,5.6 µM (inactive),2.54 µM (inactive),31.7 µM (inactive),3.39 µM (inactive),,1.38,13.1 µM (inactive),2.51 µM (inactive),4.81 µM (inactive),3.92 µM (inactive),2.2 µM (inactive),9.71 µM (inactive),1.69 µM (inactive),4.26 µM (inactive),6.1 µM (inactive),3.28 µM (inactive),3.92 µM (inactive),1.95 µM (inactive),
CCC(=O)n1c(=O)n(-c2ccc([N+](=O)[O-])cc2)c(=O)n1C(=O)CC,,> 100 µM (inactive),> 100 µM (inactive),> 100 µM (inactive),> 100 µM (inactive),> 100 µM (inactive),> 100,> 100 µM (inactive),> 100 µM (inactive),> 100 µM (inactive),> 100 µM (inactive),> 100 µM (inactive),> 100 µM (inactive),> 100 µM (inactive),> 100 µM (inactive),> 100 µM (inactive),> 100 µM (inactive),> 100 µM (inactive),,> 100 µM (inactive)
